Legend:
[1] = system: LPS induced IL-6 production; experiment: LPS (lipopolysaccharide) induced IL-6 production mouse assay; format: in vivo; conditions: mice, 3 mg/kg (PO), one hour before LPS, serum 2 hours after LPS
Protocol: Compounds of the Examples listed in Table 8 were assayed for their ability to inhibit LPS (lipopolysaccharide) induced IL-6 production in mice. Severe combined immunodeficient female mice (8 per group) received an intraperitoneal challenge of lipopolysaccharide (2.5 mg/kg, L2630 E. coli 0111:B4) one hour after oral administration (PO) or intraperitoneal administration (IP) of compounds in a solution of 2% ethanol, 5% Tween-80, 20% PEG-400 and 73% (0.2% hydroxypropylmethylcellulose in water). Mice were euthanized 2 hours after lipopolysaccharide injection, blood was removed by cardiac puncture, and then the serum harvested from the blood samples was frozen at −80° C. On the day of the assay the serum samples were brought to room temperature and then diluted 1:20 in phosphate-buffered saline containing 2% bovine serum albumin. Interleukin-6 measurements were performed using a cytokine assay from Meso Scale Discovery (Gaithersburg, Md.) for mouse serum analysis according to the manufacturer's protocol and read on a SECTOR Imager 6000 (Meso Scale Discovery, Gaithersburg, Md.) instrument. Statistical analysis was performed using Prism software (version 5.0) incorporating Dunnett's one way ANOVA. The IL-6 mean and standard deviation of the group of vehicle treated animals were compared with the IL-6 mean and standard deviation of the group treated with drug. A p value <0.05 means that there is less than a 5% probability that the mean values in the two groups are equal.

BRD4 (BDI_K57-E168) = BRD4 (BDI_K57-E168) (Homo sapiens (Human), UniProt O60885); experiment: TR-FRET bromodomain binding assay, BRD4 first bromodomain; conditions: His-tagged BD1, 100 nM Alexa647 probe
Outline: (§1)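 His-tagged BRD4 BD1 or BD2 (8 nM) with Eu-anti-His antibody (1 nM) and Alexa647-labelled BET-inhibitor probe (100 nM BDI, 30 nM BDII); 50 μM−0.85 nM compound, 2% DMSO, phosphate buffer pH 6.0, 1 h at room temperature. TR-FRET IC50 by 4-parameter fit, converted to Ki using probe Kd.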

BRD4 (BDII_E352-M457) = BRD4 (BDII_E352-M457) (Homo sapiens (Human), UniProt O60885); experiment: TR-FRET bromodomain binding assay, BRD4 second bromodomain; conditions: His-tagged BD2, 30 nM Alexa647 probe
Outline: as §1

[2] = system: breast cancer cell line MX-1; experiment: MX-1 cell line proliferation assay (3-day, Cell Titer Glo); format: cell-based, human; conditions: Homo sapiens, MX1, MX-1 cells, 72 hours, read-out: Cellular proliferation: EC50
Protocol: The impact of compounds of the Examples on cancer cell proliferation was determined using the breast cancer cell line MX-1 (ATCC) in a 3-day proliferation assay. MX-1 cells were maintained in RPMI supplemented with 10% FBS at 37 C.° and an atmosphere of 5% CO2. For compound testing, MX-1 cells were plated in 96-well black bottom plates at a density of 5000 cells/well in 90 μl of culture media and incubated at 37° overnight to allow cell adhesion and spreading. Compound dilution series were prepared in DMSO via a 3-fold serial dilution from 3 mM to 0.1 μM. The DMSO dilution series were then diluted 1:100 in phosphate buffered saline, and 10 μL of the resulted solution were added to the appropriate wells of the MX-1 cell plate. The final compound concentrations in the wells were 3, 1, 0.3, 0.1, 0.03, 0.01, 0.003, 0.001, 0.0003 and 0.0001 μM.
Luminescence readings from the Cell Titer Glo assay were normalized to the DMSO treated cells and analyzed using the GraphPad Prism software with sigmoidal curve fitting to obtain EC50s. The minimum significant ratio (MSR) was determined to evaluate assay reproducibility (Eastwood et al., (2006) J Biomol Screen, 11: 253-261).

CCS(=O)(=O)Nc1ccc(Oc2ccc(F)cc2F)c(-c2[nH]c(C)c3c2CCCC3=O)c1 [Example 47, N-[4-(2,4-difluorophenoxy)-3-(3-methyl-4-oxo-4,5,6,7-tetrahydro-2H-isoindol-1-yl)phenyl]ethanesulfonamide]
% inhibition of LPS induced IL-6 production [1]: 33.0 at 3 mg/kg (PO) %
Ki (BRD4 (BDI_K57-E168)): 11 nM
Ki (BRD4 (BDII_E352-M457)): 19 nM
EC50 [2]: 193 nM
